{"source": "patent US11230535B2", "about": "“CFTR regulators and methods of use thereof” (THE REGENTS OF THE UNIVERSITY OF CALIFORNIA, priority 2015, dated 2022)", "key": {"[1]": {"tested_on": "isolated mouse ileum and colon strips", "experiment": "Ex vivo contractility of isolated ileum and colon strips", "details": "alone or with 10 μM loperamide", "method": "Whole-gut transit time was determined using an orally administered marker (200 μL, 5% Evans Blue, 5% gum Arabic) and measuring the time of its appearance in stool. Mice were administered loperamide and CFTRact-J027 (10 mg/kg) or vehicle intraperitoneally at zero time. For ex vivo contractility measurements, mice were euthanized by avertin overdose (200 mg/kg, 2,2,2-tribromethanol, Sigma-Aldrich) and ileum and colon segments of ˜2 cm length were isolated and washed with Krebs-Henseleit buffer. The ends of the intestinal segments were tied, connected to a force transducer (Biopac Systems, Goleta, Calif., USA) and tissues were transferred to an organ chamber (Biopac Systems) containing Krebs-Henseleit buffer at 37° C. aerated with 95% O2, 5% CO2. Ileum and colon were stabilized for 60 min with resting tensions of 0.5 and 0.2 g respectively, and solutions were changed every 15 min. Effects of CFTRact-J027 on baseline and loperamide-suppressed isometric intestinal contractions were recorded.\nIn vivo intestinal transit and ex vivo intestinal contractility. Whole-gut transit time was determined using an orally administered marker (200 μL, 5% Evans Blue, 5% gum Arabic) and measuring the time of its appearance in stool. […] Effects of CFTRact-J027 on baseline and loperamide-suppressed isometric intestinal contractions were recorded."}, "ΔF508-CFTR": {"target": "T1, ΔF508-CFTR (Homo sapiens, UniProt P13569, DEL508-508)", "T1 construct": "expressed in transfected cells; host or cells: Fischer rat thyroid (FRT) cells", "T1 sequence (P13569 with tags, fused parts or gaps DEL508-508)": "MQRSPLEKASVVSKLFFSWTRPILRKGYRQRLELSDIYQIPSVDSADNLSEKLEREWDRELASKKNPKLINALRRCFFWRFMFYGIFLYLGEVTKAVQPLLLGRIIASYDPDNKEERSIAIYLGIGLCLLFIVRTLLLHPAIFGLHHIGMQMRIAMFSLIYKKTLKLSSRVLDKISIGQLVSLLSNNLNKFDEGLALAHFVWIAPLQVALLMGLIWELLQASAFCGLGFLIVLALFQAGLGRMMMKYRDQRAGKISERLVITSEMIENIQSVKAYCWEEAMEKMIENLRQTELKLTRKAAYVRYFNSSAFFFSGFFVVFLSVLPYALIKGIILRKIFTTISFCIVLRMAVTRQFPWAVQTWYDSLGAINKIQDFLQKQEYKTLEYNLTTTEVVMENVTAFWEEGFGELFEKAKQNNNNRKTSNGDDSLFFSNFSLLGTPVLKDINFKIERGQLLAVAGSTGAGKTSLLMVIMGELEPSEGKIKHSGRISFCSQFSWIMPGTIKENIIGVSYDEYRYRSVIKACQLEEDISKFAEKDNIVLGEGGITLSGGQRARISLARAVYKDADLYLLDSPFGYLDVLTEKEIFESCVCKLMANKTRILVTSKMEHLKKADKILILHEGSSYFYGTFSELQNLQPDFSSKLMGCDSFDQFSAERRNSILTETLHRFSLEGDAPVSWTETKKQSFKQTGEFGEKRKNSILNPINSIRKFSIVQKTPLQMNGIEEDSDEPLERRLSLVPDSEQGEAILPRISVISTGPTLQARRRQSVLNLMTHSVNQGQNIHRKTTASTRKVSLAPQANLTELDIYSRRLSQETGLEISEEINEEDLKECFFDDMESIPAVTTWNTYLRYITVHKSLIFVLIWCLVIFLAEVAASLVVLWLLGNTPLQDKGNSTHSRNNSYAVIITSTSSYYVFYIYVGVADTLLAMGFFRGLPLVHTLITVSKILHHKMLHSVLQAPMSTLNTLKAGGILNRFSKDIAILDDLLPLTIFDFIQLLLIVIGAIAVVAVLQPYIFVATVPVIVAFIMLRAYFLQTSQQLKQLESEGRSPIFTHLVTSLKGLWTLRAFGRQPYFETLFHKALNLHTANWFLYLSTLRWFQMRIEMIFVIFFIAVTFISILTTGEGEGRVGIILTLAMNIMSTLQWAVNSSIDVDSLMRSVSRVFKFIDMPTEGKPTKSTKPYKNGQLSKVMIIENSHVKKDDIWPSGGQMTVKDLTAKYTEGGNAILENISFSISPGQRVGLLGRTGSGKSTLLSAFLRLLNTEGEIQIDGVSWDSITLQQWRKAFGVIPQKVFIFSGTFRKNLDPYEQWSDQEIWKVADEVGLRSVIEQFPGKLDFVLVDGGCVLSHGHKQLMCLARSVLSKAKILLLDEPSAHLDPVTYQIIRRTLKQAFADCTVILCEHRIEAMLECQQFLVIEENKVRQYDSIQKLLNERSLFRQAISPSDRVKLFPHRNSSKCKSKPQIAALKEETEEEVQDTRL", "experiment": "Short-circuit current in FRT cells expressing ΔF508-CFTR after corrector (VX-809)", "format": "cell-based", "details": "overnight corrector", "method": "FIGS. 9A-9E. Characterization of CFTR activation by CFTRact-J027. Short-circuit current measured in FRT cells expressing human wild-type CFTR (FIG. 9A) and ΔF508-CFTR (FIG. 9C) showing responses to indicated concentrations of forskolin (fsk), CFTRact-J027, and VX-770. The ΔF508-CFTR-expressing FRT cells were corrected with 3 μM VX-809 at 37° C. for 24 h before measurement. CFTRinh-172 (Inh-172, 10 μM) was added where indicated. FIG. 9B. CFTRact-J027 concentration-dependent activation of wild-type CFTR Cl^− current (S.E.; n=3 cultures). FIG. 9D. Short-circuit current in mouse colon showing responses to indicated concentrations of forskolin (fsk), CFTRact-J027, and CFTRinh-172. FIG. 9E. Assay of cAMP concentration in FRT cells measured following 10-min incubation with indicated concentrations of forskolin and 5 μM CFTRact-J027. Positive controls included forskolin (100 nM and 20 μM), and forskolin plus 3-isobutyl-1-methylxanthine (IBMX, 100 μM) (mean±SE, n=4-8).\nThe increase in current at high CFTRact-J027 was further increased by forskolin, which may be a consequence of activation of a basolateral membrane cAMP-sensitive K^+ channel that increases the driving force for apical membrane Cl^− secretion."}, "loperamide-treated mice": {"tested_on": "loperamide-treated mice", "experiment": "Loperamide-induced mouse model of constipation (3-h stool weight, pellet number, water content)"}, "[2]": {"tested_on": "closed mid-jejunal loops of cystic fibrosis mice", "experiment": "In vivo intestinal fluid absorption in closed mid-jejunal loops of CF mice", "set-up": "species or system mouse", "details": "30 min", "method": "(§1) Mice (wildtype or CF) were given access to 5% dextrose water but not solid food for 24 h before experiments. Mice were anesthetized with isoflurane and body temperature was maintained during surgery at 36-38° C. using a heating pad. A small abdominal incision was made to expose the small intestine, and closed mid-jejunal loops (length 2-3 cm) were isolated by sutures. Loops were injected with 100 μL vehicle alone or 100 μg CFTRact-J027 in vehicle. The abdominal incision was closed with sutures, and mice were allowed to recover from anesthesia. Intestinal loops were removed at 90 min and loop length and weight were measured to quantify fluid secretion. Intestinal absorption was measured in CF mice (to prevent secretion) as described above, except that the loops were removed at 0 or 30 min. Absorption was calculated as 1−(loop weight at 0 min−loop weight at 30 min)/loop weight at 0 min.\n(§2) In vivo intestinal secretion and absorption. Mice (wildtype or CF) were given access to 5% dextrose water but not solid food for 24 h before experiments. […] Intestinal loops were removed at 90 min and loop length and weight were measured to quantify fluid secretion. Intestinal absorption was measured in CF mice (to prevent secretion) as described above, except that the loops were removed at 0 or 30 min. Absorption was calculated as 1−(loop weight at 0 min−loop weight at 30 min)/loop weight at 0 min."}, "closed mid-jejunal loops": {"tested_on": "closed mid-jejunal loops", "experiment": "In vivo intestinal fluid secretion in closed mid-jejunal loops", "set-up": "species or system mouse", "details": "90 min", "method": "as §1, §2"}, "[3]": {"experiment": "Tear film pharmacokinetics (LC/MS of tear washes)"}, "[4]": {"experiment": "Chemical stability in ophthalmic vehicle (LC/MS)", "format": "physicochemical", "details": "100 μM, 0.3% CMC in Ringer's solution, 24 h at 40° C."}}, "note": "Entries after “also recorded” stand apart in the source; their conditions may differ.", "data": [{"smiles": "Nc1ccc([N+](=O)[O-])cc1-c1nc2ccccc2n(Cc2ccccc2)c1=O", "note": "[CFTRact-J027, 3-(2-amino-5-nitrophenyl)-1-benzylquinoxalin-2(1H)-one]", "values": [{"measurement": "intestinal contraction", "setting": "[1]", "result": "no effect"}, {"measurement": "potentiation of ΔF508-CFTR", "setting": "ΔF508-CFTR", "result": "substantially less potent than ivacaftor; also recorded: only a weak potentiator"}, {"measurement": "stool weight, pellet number, water content", "setting": "loperamide-treated mice; 10 mg/kg ip, loperamide-treated mice", "result": "normalized each of the stool parameters"}, {"measurement": "efficacy after chronic administration", "setting": "loperamide-treated mice; 10 mg/kg oral daily for 7 days, loperamide 1 h after final dose", "result": "remained effective in normalizing stool output and water content"}, {"measurement": "effect on stool parameters in cystic fibrosis mice", "setting": "loperamide-treated mice; CF mice lacking functional CFTR", "result": "without effect"}, {"measurement": "stool output or water content in control mice", "setting": "loperamide-treated mice; ip, non-loperamide-treated mice", "result": "did not affect stool output or water content"}, {"measurement": "stool output, oral, control mice", "setting": "loperamide-treated mice; oral 10 mg/kg, control mice", "result": "no effect"}, {"measurement": "stool output and water content, oral administration", "setting": "loperamide-treated mice; oral (10 mg/kg) 1 h before loperamide, 10 mg/kg", "result": "normalized stool output and water content; also recorded: effective in normalizing stool output and water content"}, {"measurement": "ED50, oral administration", "setting": "loperamide-treated mice; oral, loperamide model", "result": 0.5, "unit": "mg/kg"}, {"measurement": "intestinal fluid absorption", "setting": "[2]", "result": "did not affect intestinal fluid absorption"}, {"measurement": "increase in loop weight/length ratio", "setting": "closed mid-jejunal loops; 100 μg per loop, wild-type mice", "result": 140, "unit": "%"}, {"measurement": "loop fluid secretion in cystic fibrosis mice", "setting": "closed mid-jejunal loops; CF mice", "result": "without effect"}]}, {"smiles": "CCN(CC)c1nc(Nc2ccccc2)nc(OC(C(F)(F)F)C(F)(F)F)n1", "note": "[CFTRact-K089, N,N-Diethyl-6-[(1,1,1,3,3,3-hexafluoropropan-2-yl)oxy]-N′-phenyl-1,3,5-triazine-2,4-diamine]", "values": [{"measurement": "amount recovered from tear fluid at six hours", "setting": "[3]; 0.1 nmol (2 μL, 50 μM) instilled", "result": "0.011 ± 0.004", "unit": "pmol"}, {"measurement": "duration of predicted therapeutic levels in tear fluid", "setting": "[3]; 0.1 nmol instilled", "result": "at least six"}, {"measurement": "tear film bioavailability, in words", "setting": "[3]; topical", "result": "sustained tear film bioavailability"}]}, {"smiles": "CNc1nc(Nc2ccccc2)nc(OCC(F)(F)C(F)F)n1", "note": "[compound 12, N-methyl-N′-phenyl-6-(2,2,3,3-tetrafluoropropoxy)-1,3,5-triazine-2,4-diamine]", "values": [{"measurement": "chemical stability in ophthalmic vehicle", "setting": "[4]", "result": "stable at 100 μM in an ophthalmic vehicle; also recorded: remained chemically stable"}]}]}
